Results from patent US20130184222A1, “[…] ACTIVE COMPOSITIONS AND THEIR METHODS OF USE” (AGIOS PHARMACEUTICALS, INC, priority 2010, published 2013).

What was measured:
HT1080 cells = experiment: Cellular assay: inhibition of 2-HG production in HT1080 cells (LC-MS, 48 hours); format: cell-based; conditions: Homo sapiens, HT-1080, 2-HG in media by LC-MS
Procedure, shortened: (§1)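 HT1080 or U87MG cells (5000/well, DMEM + 10% FBS) seeded overnight, then exposed to compound (0.2% DMSO final) for 48 h; medium 2-HG measured by LC-MS. Viability read by CellTiter-Glo luminescence at 72 h.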

U87MG cells = experiment: Cellular assay: inhibition of 2-HG production in U87MG cells (LC-MS, 48 hours); format: cell-based; conditions: Homo sapiens, U-87 MG, 2-HG in media by LC-MS
Procedure, shortened: as §1

IDH1 R132H = IDH1 R132H (Homo sapiens, UniProt O75874, R132H); experiment: In vitro assay for IDH1 R132H inhibitors (NADPH/aKG, resazurin detection); format: biochemical; conditions: Table 4B; 0.2 μg/ml IDH1 R132H, 50 minutes at room temperature; read-out: IC50, IDH1 R132H Inhibition
Procedure, shortened: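 Reaction ran 50 min at room temperature in Tris pH 7.5 buffer with 150 mM NaCl, 10 mM MgCl2 and 0.03% BSA. Mix concentrations were 0.2 μg/ml mutant enzyme, 8 uM NADPH and 2 mM aKG. Detection added 30 μM resazurin, with resorufin fluorescence (Ex544/Em590) measured 5 min later.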

Sequence of IDH1 R132H (O75874 whole entry R132H): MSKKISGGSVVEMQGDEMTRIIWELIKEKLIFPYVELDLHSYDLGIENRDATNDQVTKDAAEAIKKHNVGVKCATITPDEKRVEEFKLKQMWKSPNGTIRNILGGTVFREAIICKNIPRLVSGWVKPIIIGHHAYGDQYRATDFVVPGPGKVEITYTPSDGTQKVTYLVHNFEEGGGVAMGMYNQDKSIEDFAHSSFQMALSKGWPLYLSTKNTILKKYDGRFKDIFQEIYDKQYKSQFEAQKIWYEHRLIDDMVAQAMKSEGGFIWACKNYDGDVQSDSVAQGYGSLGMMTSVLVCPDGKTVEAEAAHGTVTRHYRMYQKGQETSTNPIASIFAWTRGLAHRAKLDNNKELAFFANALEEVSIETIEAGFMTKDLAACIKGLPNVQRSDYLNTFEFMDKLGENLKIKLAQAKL

**Q.** How did the IC50 (HT1080 cells) turn out when `Cc1ccccc1C(C(=O)NC1CCCCC1)N(C(=O)Cn1ccc2ncccc21)c1cccc(F)c1` (stereo not drawn) [Compound 252] was run?
**A.** The IC50 was 1 to 5 µM.

**Q.** And the IC50 (U87MG cells)?
**A.** Its IC50 is 0.25 to 1 µM.

**Q.** And the IC50 (IDH1 R132H)?
**A.** The IC50 was 0.1 to 1 µM.

**Q.** Which results are given for `Cc1ccccc1C(C(=O)NC1CCCCC1)N(C(=O)CO[C@H]1CCOC1)c1cccc(F)c1` (stereo partly drawn) [Compound 251]?
**A.** IC50 (HT1080 cells): 0.25 to 1 µM; IC50 (U87MG cells): 0.25 to 1 µM; IC50 (IDH1 R132H): 0.1 to 1 µM

**Q.** What does the source list for `COc1ccc(CNCC(=O)N(c2cccc(F)c2)C(C(=O)NC2CCCCC2)c2ccccc2C)cc1` (stereo not drawn) [Compound 219]?
**A.** IC50 (HT1080 cells): 1 to 5 µM; IC50 (U87MG cells): 1 to 5 µM; IC50 (IDH1 R132H): 0.1 to 1 µM

**Q.** How did the IC50 (HT1080 cells) turn out when `COc1ccc(NCC(=O)N(c2cccc(F)c2)C(C(=O)NC2CCCCC2)c2ccccc2C)cc1` (stereo not drawn) [Compound 210] was run?
**A.** The IC50 was 1 to 5 µM.

**Q.** What about the IC50 (U87MG cells) of the same compound?
**A.** Its IC50 is 1 to 5 µM.

**Q.** And the IC50 (IDH1 R132H)?
**A.** The IC50 was no more than 0.1 µM.

**Q.** Which IC50 (HT1080 cells) does the source give for `COC(=O)NCCC(=O)N(c1cccc(F)c1)C(C(=O)NC1CCCCC1)c1ccccc1C` (stereo not drawn) [Compound 374] here?
**A.** The IC50 was 1 to 5 µM.

**Q.** What about the IC50 (U87MG cells) of the same compound?
**A.** Its IC50 is 1 to 5 µM.

**Q.** What about the IC50 (IDH1 R132H) of the same compound?
**A.** Its IC50 is 0.1 to 1 µM.

**Q.** For `Cc1ccccc1C(C(=O)NC1CCCCC1)N(C(=O)Cn1ccnc1C)c1cccc(-c2cnn(C)c2)c1` (stereo not drawn) [Compound 223], which IC50 (HT1080 cells) is on record?
**A.** Its IC50 is 0.25 to 1 µM.

**Q.** And the IC50 (U87MG cells)?
**A.** The IC50 was no more than 0.25 µM.

**Q.** What about the IC50 (IDH1 R132H) of the same compound?
**A.** The IC50 was 0.1 to 1 µM.

**Q.** What does the source list for `O=C(NC1CCCCC1)C(c1ccccc1F)N(C(=O)Cc1cscn1)c1cccc(F)c1` (stereo not drawn) [Compound 320]?
**A.** IC50 (HT1080 cells): 0.25 to 1 µM; IC50 (U87MG cells): 0.25 to 1 µM; IC50 (IDH1 R132H): ≤ 0.1 µM

**Q.** For `Cc1ccccc1C(C(=O)NC1CC(F)(F)C1)N(C(=O)Cn1ccnc1C)c1cccc(F)c1` (stereo not drawn) [Compound 380], which IC50 (HT1080 cells) is on record?
**A.** The IC50 was 1 to 5 µM.

**Q.** What about the IC50 (U87MG cells) of the same compound?
**A.** The IC50 was no more than 0.25 µM.

**Q.** And the IC50 (IDH1 R132H)?
**A.** Its IC50 is 0.1 to 1 µM.

**Q.** How did the IC50 (HT1080 cells) turn out when `Cc1ccccc1C(C(=O)NC1CCCCC1)N(C(=O)Cn1ccnc1C)c1cccc(-c2ccnn2C)c1` (stereo not drawn) [Compound 315] was run?
**A.** Its IC50 is 1 to 5 µM.

**Q.** What about the IC50 (U87MG cells) of the same compound?
**A.** Its IC50 is no more than 0.25 µM.

**Q.** And the IC50 (IDH1 R132H)?
**A.** Its IC50 is 0.1 to 1 µM.

**Q.** `CC(=O)Oc1ccc(C(=O)N(c2cccc(F)c2)C(C(=O)NC2CCCCC2)c2ccccc2C)cc1` (stereo not drawn) [Compound 215, Acetic acid 4-[(cyclohexylcarbamoyl-o-tolyl-methyl)-(3-fluoro-phenyl)-carbamoyl]-phenyl ester] was tested. Which IC50 (HT1080 cells) did it give?
**A.** Its IC50 is 0.25 to 1 µM.

**Q.** What about the IC50 (U87MG cells) of the same compound?
**A.** The IC50 was 0.25 to 1 µM.

**Q.** What about the IC50 (IDH1 R132H) of the same compound?
**A.** Its IC50 is 0.1 to 1 µM.

**Q.** Which results are given for `Cc1ccccc1C(C(=O)NC1CCCCC1)N(C(=O)CN1CCCc2ccccc21)c1ccn(C)n1` (stereo not drawn) [Compound 245]?
**A.** IC50 (HT1080 cells): 0.25 to 1 µM; IC50 (U87MG cells): 1 to 5 µM; IC50 (IDH1 R132H): 0.1 to 1 µM

**Q.** With `Cc1cnn(CC(=O)N(c2cccc(F)c2)C(C(=O)NC2CCCCC2)c2ccccc2C)c1` (stereo not drawn) [Compound 309] as the compound, how does the IC50 (HT1080 cells) read?
**A.** Its IC50 is 0.25 to 1 µM.

**Q.** And the IC50 (U87MG cells)?
**A.** The IC50 was 1 to 5 µM.

**Q.** What about the IC50 (IDH1 R132H) of the same compound?
**A.** Its IC50 is 0.1 to 1 µM.

**Q.** For `O=C(NC1CCCCC1)C(c1ccccc1)N(C(=O)Cn1ccnc1)c1cccc(F)c1` (stereo not drawn) [Compound 296], which IC50 (HT1080 cells) is on record?
**A.** Its IC50 is 1 to 5 µM.

**Q.** What about the IC50 (U87MG cells) of the same compound?
**A.** The IC50 was no more than 0.25 µM.

**Q.** And the IC50 (IDH1 R132H)?
**A.** Its IC50 is 0.1 to 1 µM.

**Q.** What does the source list for `Cc1ccccc1C(C(=O)NC1CCCCC1)N(C(=O)COCc1ccncc1)c1cccc(F)c1` (stereo not drawn) [Compound 229]?
**A.** IC50 (HT1080 cells): 0.25 to 1 µM; IC50 (U87MG cells): 1 to 5 µM; IC50 (IDH1 R132H): 0.1 to 1 µM

**Q.** For `COC(=O)N(C)CC(=O)N(c1cccc(F)c1)C(C(=O)NC1CCCCC1)c1ccccc1C` (stereo not drawn) [Compound 341], which IC50 (HT1080 cells) is on record?
**A.** The IC50 was no more than 0.25 µM.

**Q.** And the IC50 (U87MG cells)?
**A.** Its IC50 is no more than 0.25 µM.

**Q.** What about the IC50 (IDH1 R132H) of the same compound?
**A.** The IC50 was no more than 0.1 µM.

**Q.** Which results are given for `Cc1ccccc1C(C(=O)NC1CCCCC1)N(C(=O)CNc1ccc(-c2nnco2)cc1)c1cccc(F)c1` (stereo not drawn) [Compound 290]?
**A.** IC50 (HT1080 cells): ≤ 0.25 µM; IC50 (U87MG cells): 0.25 to 1 µM; IC50 (IDH1 R132H): ≤ 0.1 µM

**Q.** How did the IC50 (HT1080 cells) turn out when `Cc1ccccc1C(C(=O)NC1CCCCC1)N(Cc1cccs1)C(=O)Cn1ccnc1` (stereo not drawn) [Compound 204, N-cyclohexyl-2-[(2-imidazol-1-yl-acetyl)-thiophen-2-ylmethyl-amino]-2-o-tolyl-acetamide] was run?
**A.** The IC50 was 1 to 5 µM.

**Q.** What about the IC50 (U87MG cells) of the same compound?
**A.** The IC50 was 0.25 to 1 µM.

**Q.** And the IC50 (IDH1 R132H)?
**A.** The IC50 was 0.1 to 1 µM.

**Q.** For `COC(=O)N1CCCC1C(=O)N(c1cccc(F)c1)C(C(=O)NC1CCCCC1)c1ccccc1C` (stereo not drawn) [Compound 306], which IC50 (HT1080 cells) is on record?
**A.** Its IC50 is 0.25 to 1 µM.

**Q.** And the IC50 (U87MG cells)?
**A.** Its IC50 is no more than 0.25 µM.

**Q.** And the IC50 (IDH1 R132H)?
**A.** Its IC50 is no more than 0.1 µM.

**Q.** What does the source list for `Cc1ccccc1C(C(=O)NC1CCCCC1)N(Cc1cccs1)C(=O)Cn1ccnc1C` (stereo not drawn) [Compound 176]?
**A.** IC50 (HT1080 cells): 1 to 5 µM; IC50 (U87MG cells): ≤ 0.25 µM; IC50 (IDH1 R132H): 0.1 to 1 µM

**Q.** `Cc1ccccc1C(C(=O)NC1CCCCC1)N(C(=O)CN1CCC(F)(F)CC1)c1cccc(F)c1` (stereo not drawn) [Compound 177] was tested. Which IC50 (HT1080 cells) did it give?
**A.** The IC50 was 0.25 to 1 µM.

**Q.** And the IC50 (U87MG cells)?
**A.** Its IC50 is 1 to 5 µM.

**Q.** What about the IC50 (IDH1 R132H) of the same compound?
**A.** The IC50 was 0.1 to 1 µM.

**Q.** Which results are given for `Cc1ccccc1C(C(=O)NC1CCCCC1)N(C(=O)CN1CCN(C(=O)OC(C)C)CC1)c1cccc(F)c1` (stereo not drawn) [Compound 250]?
**A.** IC50 (HT1080 cells): 1 to 5 µM; IC50 (U87MG cells): 1 to 5 µM; IC50 (IDH1 R132H): 0.1 to 1 µM

**Q.** Which results are given for `Cc1ccccc1C(C(=O)NC1CCCCC1)N(C(=O)Cn1ccnc1C)c1cccc(N2CCOCC2)c1` (stereo not drawn) [Compound 231]?
**A.** IC50 (HT1080 cells): 1 to 5 µM; IC50 (U87MG cells): ≤ 0.25 µM; IC50 (IDH1 R132H): 0.1 to 1 µM

**Q.** For `Cc1ccccc1C(C(=O)NC1CCCCC1)N(C(=O)Cn1ccnc1C(F)(F)F)c1cccc(F)c1` (stereo not drawn) [Compound 344], which IC50 (HT1080 cells) is on record?
**A.** The IC50 was 0.25 to 1 µM.

**Q.** What about the IC50 (U87MG cells) of the same compound?
**A.** Its IC50 is no more than 0.25 µM.

**Q.** What about the IC50 (IDH1 R132H) of the same compound?
**A.** Its IC50 is 0.1 to 1 µM.

**Q.** How did the IC50 (HT1080 cells) turn out when `Cc1ccccc1C(C(=O)NC1CCCCC1)N(C(=O)Cc1cccnc1)c1cccc(F)c1` (stereo not drawn) [Compound 288] was run?
**A.** Its IC50 is 0.25 to 1 µM.

**Q.** What about the IC50 (U87MG cells) of the same compound?
**A.** Its IC50 is 1 to 5 µM.

**Q.** And the IC50 (IDH1 R132H)?
**A.** The IC50 was no more than 0.1 µM.

**Q.** How did the IC50 (HT1080 cells) turn out when `Cc1ccccc1C(C(=O)NC1CCCCC1)N(C(=O)COc1cc(C(F)(F)F)ccn1)c1cccc(F)c1` (stereo not drawn) [Compound 303] was run?
**A.** Its IC50 is no more than 0.25 µM.

**Q.** What about the IC50 (U87MG cells) of the same compound?
**A.** The IC50 was 0.25 to 1 µM.

**Q.** And the IC50 (IDH1 R132H)?
**A.** The IC50 was 0.1 to 1 µM.
